In US20080207594A1, “Use of Gsk-3 Inhibitors for Preventing and Treating Pancreatic Autoimmune Disorders” (Davelogen Aktiengesellschaft, priority 2005, published 2008):
“Also recorded” adds a separate entry of the source.

Experiments:
Pax4 [1] = assay: Pax4 transcription in INS-1E insulinoma cells, quantitative RT-PCR; format: cell-based, rat; conditions: INS-1E cells; for stimulation of Pax4 transcription relative to activin A (in words): FIG. 16
Excerpt: The response of the Pax4 gene to test compounds was investigated in the rat insulinoma cell line INS-1E. INS-1E cells are known to express Pax4 and to upregulate Pax4 levels in response to the treatment with activin-A and betacellulin. In the search for novel beta cell mitogens and/or beta cell protective agents the inventors treated INS-1E cells with different test compounds.
Total RNA from 8×10^4 cells growing on 4 cm^2 surface area of a tissue culture dish was extracted using Qiagen RNAeasy kit according to the instructions of the manufacturer (Qiagen) and 2 μg was converted into cDNA. Primers for pax4, 18S RNA, and rat RNA polymerase II largest subunit (RPB1) were designed using the Primer Express 1.5 Software from Applied Biosystems and sequences can be obtained upon request. Quantitative real-time PCR was performed using Applied Biosystems SDS 7000 detection system. Amplifications from 2 independent experiments were performed in duplicate for each transcript and mean values were normalized to the mean value of the reference RNA 18S RNA.
(§1) Cells were seeded at a density of 2×10^4 cells per cm^2 6 to 8 days before the treatment with chemicals. During the growth period the medium was changed once. The cells were incubated for different periods of time with chemicals under serum-free conditions. The cells were harvested in Qiagen RNAeasy cell lysate buffer and immediately transferred to dry ice. The samples were stored at −20° C. until RNA isolation was carried out.
as §1, with “RNA easy” for “RNAeasy”, “−20 degree” for “−20° C.”

primary rat beta cells = assay: In vitro beta cell proliferation assay (Ki-67 / C-peptide staining of dispersed islets); format: cell-based; conditions: incubation 72 hours; for replication of primary rat beta cells, agent alone: FIG. 12, FIG. 14
Procedure: About 1.5×10^4 beta cells were inspected per experiment and the percentage of double positive cells was determined. The number of replicating beta cells is expressed relative to control cells maintained in 10% FCS (FIG. 9A). Prolactin treated cells served as a technical control. Identification of C-peptide and Ki67 double positive beta cells dispersed on adhesive slides was carried out by immunohistochemistry (FIG. 9B).
We investigated the growth promoting effects by monitoring the percentage of replicating beta cells in isolated rat islets. Replicating beta cells were identified by immunohistological staining of dispersed islets with antibodies against C-peptide, a fragment of proinsulin, and the cell division marker Ki-67.
Islets of Langerhans are isolated by standard Liberase digestion method from rat pancreata (Liberase™ Cl enzyme blend BMB Cat. # 1814-435, ROCHE).
Following the culture period the islets are dispersed gently by titration in Ca^2+ and Mg^2+ free PBS. […] The adherent islet cells are fixed and stained by standard immunofluorescence techniques for C-peptide, a fragment of proinsulin and Ki-67 a marker of proliferating cells.
An Olympus microscope equipped with an automatic image acquisition device (Olympus) is used for counting of C-peptide positive beta cells. Proliferating C-peptide/Ki-67 double positive beta cells are counted manually. Thereby the fraction of proliferating beta cells can be determined.

Pax4 [2] = assay: Pax4 transcription in rat islets, quantitative RT-PCR; format: cell-based
Excerpt: The response of the Pax4 gene to two compounds was investigated in rat islets. […] No effects were observed on the expression levels of cyclophilin B and RNA polymerase II largest subunit (RPB1) indicating a specific regulation of the Pax4 gene.
Total RNA from 200 to 400 islets growing in wells with 4 cm^2 surface area of a tissue culture dish was isolated according to instruction of the manufacturer of Trizol™ reagent. To further purify the RNA and to remove remaining DNA contaminations RNA was treated with the Qiagen RNAeasy kit according to the instructions of the manufacturer (Qiagen) and about 1 μg was converted into cDNA. Primers for pax4, 18S RNA, and rat RNA polymerase II largest subunit (RPB1) were designed using the Primer Express 1.5 Software from Applied Biosystems. Quantitative real-time PCR was performed using Applied Biosystems SDS 7000 detection system. Amplifications from at least 2 independent experiments were performed in duplicate for each transcript and mean values were normalized to the mean value of the reference RNA 18S RNA.
Rat islets were isolated from Wistar rats and cultured as described (Brun et al., 2004, JCB; 167: 1123-1135). In brief, 10 ml ice-cold liberase solution (Roche) was injected into the pancreas via the common bile duct. After dissection the pancreas was incubated for 40 minutes at 37° C. and then further dissociated by repeated pipetting using a 10 ml pipette. Islets were isolated by applying digested tissue to a ficoll-gradient before they were manually picked using a stereomicroscope. Islets were placed in bacteriological wells and compounds were administered as indicated. Islets were harvested in Trizol™ and immediately transferred to dry ice. The samples were stored at −20° C. until RNA isolation was carried out.

INS-1E cells = assay: Protection against apoptotic signals, nucleosomal fragmentation (cell death detection ELISA) and morphology; format: cell-based, rat
Procedure: FIG. 7: Determination of cytokine or high glucose and fatty acid induced Nucleosomal-fragmentation in INS-1 cells. To induce apoptosis INS-1 cells were exposed to the cytokines IL-1 beta at 4 ng/ml and IFN-gamma at 1 U/ml (Cyt. in figure A) or glucose at […] and palmitate at […] (Pal/Gluc in figure B) for 24 hours. 1 hour before the application of these reagents indicated cell samples were treated with 10 μM 1-Azakenpaullone (AzaP) or 15 μM NG-monomethyl-L-arginine monoacetate (L-NMMA) an inhibitor of the inducible nitric oxide synthase (iNOS). Apoptosis was assessed by determination of nucleosomal accumulation in the cytosolic extracts using a cell death detection ELISA kit. Nucleosomal release is expressed relative to untreated control cells (Co.).
FIG. 8: Cell morphology of treated cells was inspected by light microscopy. Cell morphologies of untreated (A), Pal/Gluc (B) and Pal/Gluc+AzaP (C) treated cells are shown.
The beta cell line INS-1E was used to investigate anti-apototic effects of the compounds of the invention on beta cells. Apotosis was induced by culturing cells with a cytokine combination (interleukine-1beta/interferon gamma) or with high concentrations of both glucose and palmitate. 1-Azakenpaullone strongly (60%) inhibited cytokine-induced apoptosis (FIG. 7A), with a weaker effect (25%) against glucolipotoxicity induced apoptosis (FIG. 7B). The state of the treated and untreated cells was analyzed by microscopy.
INS-1E cells were cultured as described (Merglen et al., (2004) Endocrinology; 145: 667-678). Cells were seeded at a density of 1×10^4 cells per 96-well in 96 well plates in 200 μl culture medium for 3 days. Then, cells were cultured for 1 day in 100 μl medium containing 1% FCS and 5 mM glucose. […] The rate of apoptosis was measured by the specific determination of mono- and oligonucleosomes in the cytoplasmic fraction of cell lysates using a cell death detection ELISA kit (ROCHE Cat. No. 1774425). The assay is based on a quantitative sandwich-enzyme-immunoassay-principle using mouse monoclonal anti-histone and anti-DNA peroxidase antibodies. […]

Molecule: O=C1Cc2c([nH]c3ccc([N+](=O)[O-])cc23)-c2ccccc2N1 [Alsterpaullone]
- induction of relative Pax4 expression compared to the control (Pax4 [1]; 20 μM): about 7 fold

Molecule: CC(=O)O/N=C1/C(=C2/C(=O)Nc3cc(Br)ccc32)Nc2ccccc21 [(2′Z,3′ E)-6-Bromoindirubin-3′-acetoxime]
- induction of Pax4 expression (in words) (Pax4 [1]): induction of Pax4 expression was also found

Molecule: Cc1c[nH]c(-c2cnc(NCCNc3ccc(C#N)cn3)nc2-c2ccc(Cl)cc2Cl)n1 [CHIR99021]
- replication of primary rat beta cells, agent alone (primary rat beta cells): trigger beta cell replication; also recorded: promotes replication of primary rat beta cells

Molecule: COc1ccc(CNC(=O)Nc2ncc([N+](=O)[O-])s2)cc1 [GSK-3 inhibitor VIII, N-(4-Methoxybenzyl)-N′-(5-nitro-1,3-thiazol-2-yl)urea]
- induction of Pax4 expression (in words) (Pax4 [1]): induction of Pax4 expression was also found

Molecule: NGF: nerve growth factor
- replication of primary rat beta cells, growth factor combined with GSK3 inhibitor 1-Azakenpaullone (primary rat beta cells; FIG. 12): potentiate the growth promoting effects
- replication of primary rat beta cells, agent alone (primary rat beta cells): not sufficient to trigger beta cell replication

Molecule: exendin-4
- replication of primary rat beta cells, agent alone (primary rat beta cells): trigger beta cell replication

Molecule: GIP: incretin GIP (gastrin inhibitory protein) (YAEGTFISDYSIAMDKIHQQDFVNWLLAQKGKKNDWKHNITQ; Gastric inhibitory polypeptide; UniProt P09681 52-93, looked up)
- replication of primary rat beta cells, agent alone (primary rat beta cells): trigger beta cell replication
- replication of primary rat beta cells, GIP combined with GSK3 inhibitor CHIR99021 (primary rat beta cells; FIG. 14): cooperative effects

Molecule: O=C1Cc2c([nH]c3ccc(Br)cc23)-c2ncccc2N1 [1-Azakenpaullone]
- induction of relative Pax4 expression (Pax4 [1]; 3 μM): about 6 fold
- Pax4 RNA levels compared with technical control activin-A (Pax4 [2]): induces higher Pax4 RNA levels than activin-A
- time course of Pax4 RNA levels (Pax4 [2]): transiently up-regulates Pax4 RNA levels
- cell morphology by microscopy, signs of cell death (INS-1E cells; INS-1E exposed to toxic agents (Pal/Gluc), FIG. 8): partially antagonizes this effect
- inhibition of glucolipotoxicity induced apoptosis (INS-1E cells; INS-1E, glucose at 25 nM and palmitate at 0.04 nM for 24 hours, 10 μM compound 1 hour before, FIG. 7B): 25%
- inhibition at 10 µM (INS-1E cells; Rattus norvegicus, INS-1E, IL-1 beta 4 ng/ml and IFN-gamma 1 U/ml for 24 hours, 10 μM compound 1 hour before, FIG. 7A, read-out: inhibition of cytokine-induced apoptosis): 60%

Molecule: O=C1Nc2cc(Br)ccc2/C1=C1/Nc2ccccc2/C1=N\O [(2′Z,3′E)-6-Bromoindirubin-3′-oxime]
- induction of Pax4 expression (in words) (Pax4 [1]): induction of Pax4 expression was also found

B1: BMP 7: TGF-beta family member (protein, UniProt P18075 293-431, looked up)
Bone morphogenetic protein 7: STGSKQRSQNRSKTPKNQEALRMANVAENSSSDQRQACKKHELYVSFRDLGWQDWIIAPEGYAAYYCEGECAFPLNSYMNATNHAIVQTLVHFINPETVPKPCCAPTQLNAISVLYFDDSSNVILKKYRNMVVRACGCH
- stimulation of Pax4 transcription relative to activin A (in words) (Pax4 [1]): hardly induced Pax4 gene transcription

B2: BMP 4: TGF-beta family member (protein, UniProt P12644 293-408, looked up)
Bone morphogenetic protein 4: SPKHHSQRARKKNKNCRRHSLYVDFSDVGWNDWIVAPPGYQAFYCHGDCPFPLADHLNSTNHAIVQTLVNSVNSSIPKACCVPTELSAISMLYLDEYDKVVLKNYQEMVVEGCGCR
- stimulation of Pax4 transcription relative to activin A (in words) (Pax4 [1]): hardly induced Pax4 gene transcription

B3: betacellulin: growth factor (protein, UniProt P35070 32-111, looked up)
Betacellulin: DGNSTRSPETNGLLCGDPEENCAATTTQSKRKGHFSRCPKQYKHYCIKGRCRFVVAEQTPSCVCDEGYIGARCERVDLFY
modifications: Betacellulin
notes: growth factor
- replication of primary rat beta cells, agent alone (primary rat beta cells): does not influence replication of primary rat beta cells

B4: activin-A: technical control previously shown to activate Pax4 transcription in rat islets (protein, UniProt P08476 311-426, looked up)
Inhibin beta A chain: GLECDGKVNICCKKQFFVSFKDIGWNDWIIAPSGYHANYCEGECPSHIAGTSGSSLSFHSTVINHYRMRGHSPFANLKSCCVPTKLRPMSMLYYDDGQNIIKKDIQNMIVEECGCS
modifications: Inhibin beta A chain
- time course of Pax4 RNA levels (Pax4 [2]): more sustained increase in Pax4 RNA levels

B5: activin AB: protein related to activin A (protein, UniProt P08476 311-426; P09529 293-407, looked up)
Inhibin beta A chain: B4 Inhibin beta A chain
Inhibin beta B chain: GLECDGRTNLCCRQQFFIDFRLIGWNDWIIAPTGYYGNYCEGSCPAYLAGVPGSASSFHTAVVNQYRMRGLNPGTVNSCCIPTKLSTMSMLYFDDEYNIVKRDVPNMIVEECGCA
- stimulation of Pax4 transcription relative to activin A (in words) (Pax4 [1]): almost equally potent in stimulating Pax4 transcription as activin A
